Source: PMC2828351 (Bioorganic & medicinal chemistry, 2009)

Tests used:
[1] = molecular target: JNK (Homo sapiens, UniProt P45983); assay: LanthaScreen kinase activity assay; assay type: biochemical
[2] = molecular target: GST-JNK1 (Homo sapiens, UniProt P45983); assay: pepJIP1 DELFIA displacement assay; assay type: binding
[3] = molecular target: p38α (Homo sapiens, UniProt Q16539); assay: Selectivity profile: p38α kinase; assay type: biochemical
[4] = test system: Akt kinase; assay: Selectivity profile: Akt kinase; assay type: biochemical; conditions: for activity against Akt kinase: no significant inhibition at 100 μM
[5] = molecular target: Furin (Homo sapiens, UniProt P09958); assay: Selectivity profile: furin protease; assay type: biochemical
Sequence of Furin (P09958 108-794, species assumed): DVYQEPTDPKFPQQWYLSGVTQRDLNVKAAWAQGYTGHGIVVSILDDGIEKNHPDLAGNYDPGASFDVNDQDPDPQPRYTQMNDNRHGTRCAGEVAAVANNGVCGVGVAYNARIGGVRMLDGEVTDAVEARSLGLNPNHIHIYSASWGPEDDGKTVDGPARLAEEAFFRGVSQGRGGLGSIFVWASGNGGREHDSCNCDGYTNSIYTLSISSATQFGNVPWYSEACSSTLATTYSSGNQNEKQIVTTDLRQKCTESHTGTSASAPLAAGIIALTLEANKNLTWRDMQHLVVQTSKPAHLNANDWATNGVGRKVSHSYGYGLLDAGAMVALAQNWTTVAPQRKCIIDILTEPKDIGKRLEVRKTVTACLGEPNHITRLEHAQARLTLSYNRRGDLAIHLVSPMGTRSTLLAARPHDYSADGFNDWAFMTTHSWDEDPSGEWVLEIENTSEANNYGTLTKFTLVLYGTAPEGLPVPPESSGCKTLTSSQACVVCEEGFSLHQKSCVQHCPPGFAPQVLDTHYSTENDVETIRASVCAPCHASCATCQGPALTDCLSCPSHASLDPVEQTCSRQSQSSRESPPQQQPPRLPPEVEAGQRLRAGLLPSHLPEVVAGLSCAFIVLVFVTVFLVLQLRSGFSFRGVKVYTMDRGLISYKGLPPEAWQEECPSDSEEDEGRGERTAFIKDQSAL

[6] = molecular target: lethal factor (LF) (Bacillus anthracis, UniProt P15917); assay: biochemical; assay type: biochemical
Sequence of lethal factor (LF) (P15917 34-809 limits assumed): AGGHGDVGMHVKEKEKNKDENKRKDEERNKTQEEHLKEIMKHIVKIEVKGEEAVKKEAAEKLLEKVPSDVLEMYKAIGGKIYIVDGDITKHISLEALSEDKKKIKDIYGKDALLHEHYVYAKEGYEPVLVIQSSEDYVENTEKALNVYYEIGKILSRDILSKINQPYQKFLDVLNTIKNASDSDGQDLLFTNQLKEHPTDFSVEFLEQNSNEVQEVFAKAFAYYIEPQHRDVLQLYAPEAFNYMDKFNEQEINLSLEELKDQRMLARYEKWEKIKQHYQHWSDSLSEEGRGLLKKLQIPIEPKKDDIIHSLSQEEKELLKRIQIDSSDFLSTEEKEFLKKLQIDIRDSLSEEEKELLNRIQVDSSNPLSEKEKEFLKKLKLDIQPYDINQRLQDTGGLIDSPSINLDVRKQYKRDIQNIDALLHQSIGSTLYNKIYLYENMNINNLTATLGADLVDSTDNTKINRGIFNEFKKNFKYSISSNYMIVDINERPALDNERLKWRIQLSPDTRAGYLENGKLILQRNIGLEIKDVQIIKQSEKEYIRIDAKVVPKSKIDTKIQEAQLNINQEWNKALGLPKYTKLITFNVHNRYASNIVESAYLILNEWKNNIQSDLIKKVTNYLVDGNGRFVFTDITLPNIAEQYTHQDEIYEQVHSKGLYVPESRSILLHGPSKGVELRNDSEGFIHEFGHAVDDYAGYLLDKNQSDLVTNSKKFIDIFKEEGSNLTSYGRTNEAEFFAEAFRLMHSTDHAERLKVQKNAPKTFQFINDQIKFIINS

Sequence of GST-JNK1 (P45983 whole entry): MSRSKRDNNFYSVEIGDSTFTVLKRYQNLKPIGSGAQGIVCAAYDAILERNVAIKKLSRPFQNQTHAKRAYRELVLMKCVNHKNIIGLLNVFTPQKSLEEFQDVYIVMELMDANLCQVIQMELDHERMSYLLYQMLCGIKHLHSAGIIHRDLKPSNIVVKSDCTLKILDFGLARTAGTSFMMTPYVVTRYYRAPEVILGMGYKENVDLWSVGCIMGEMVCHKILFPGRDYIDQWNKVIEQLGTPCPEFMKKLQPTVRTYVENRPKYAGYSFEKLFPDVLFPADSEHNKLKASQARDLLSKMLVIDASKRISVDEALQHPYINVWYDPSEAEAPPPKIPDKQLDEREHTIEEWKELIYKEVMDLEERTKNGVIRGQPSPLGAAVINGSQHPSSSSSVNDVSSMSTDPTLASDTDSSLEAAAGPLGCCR
Sequence of JNK (P45983 whole entry): as above
Sequence of p38α (Q16539 whole entry): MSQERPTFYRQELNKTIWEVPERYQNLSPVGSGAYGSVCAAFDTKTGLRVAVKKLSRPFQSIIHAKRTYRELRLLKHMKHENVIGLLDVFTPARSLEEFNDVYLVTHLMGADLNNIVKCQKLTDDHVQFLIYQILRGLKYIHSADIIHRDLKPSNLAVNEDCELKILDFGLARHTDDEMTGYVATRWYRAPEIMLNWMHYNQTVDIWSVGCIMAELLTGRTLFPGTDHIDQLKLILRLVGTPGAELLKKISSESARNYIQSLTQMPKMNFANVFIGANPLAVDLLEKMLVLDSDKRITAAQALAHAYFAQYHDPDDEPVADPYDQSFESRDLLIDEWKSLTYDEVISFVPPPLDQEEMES

With `Nc1ncnc2[nH]c(SCc3ccc(C(=O)O)cc3)nc12` [BI-87C7] the “activity in kinase assay / JNK inhibition” value [1] was “none of these were good JNK inhibitors” and the IC50 [2] was over 100 µM.

`Nc1ncnc2nc(Sc3ncc([N+](=O)[O-])s3)[nH]c12` [BI-87C10] was tested, and the “activity in kinase assay / JNK inhibition” value [1] was “none of these were good JNK inhibitors” and the IC50 [2] was under 1 µM.

`O=C(O)c1ccc(CSc2nc3ccccc3[nH]2)cc1` [BI-87D4] showed an IC50 [2] of over 100 µM.

In the case of `COc1ccc2sc(Sc3ncc([N+](=O)[O-])s3)nc2c1` [BI-87D11], the “times less active against p38α (vs JNK)” value [3] is reported as “at least 50 times”, the “Akt, inhibition at 100 μM” value [4] is reported as 5% inhibition at 100 μM and the “activity against Akt kinase” value [4] is reported as “inactive”. For the same compound, the “activity against furin” value [5] was “inactive”, the IC50 [6] was over 100 µM and the “activity against lethal factor” value [6] was “inactive”.

With `O=[N+]([O-])c1cnc(Sc2nc3cc(Cl)ccc3s2)s1` [BI-87F2] the “activity in kinase assay / JNK inhibition” value [1] was “inactive”.

For `Cn1c(Sc2ncc([N+](=O)[O-])s2)nc2ccccc21` [BI-87F7], the “activity in kinase assay / JNK inhibition” value [1] was “no activity”.

`O=[N+]([O-])c1cnc(Sc2nc3ccc(Cl)cc3s2)s1` [BI-87F8] was tested, and the “activity in kinase assay / JNK inhibition” value [1] was “inactive”.

With `Cn1c(Sc2nc3ccc(Cl)cc3s2)nnc1-c1cccs1` [BI-87F11] the IC50 [2] was over 100 µM.

Compound `Cn1c(Sc2nc3ccc(Cl)cc3s2)nnc1-c1ccc2ncccc2c1` [BI-87F12] has an IC50 [2] of over 100 µM.

`CCOc1ccc2nc(Sc3ncc([N+](=O)[O-])s3)sc2c1` [BI-87G2] was tested, and the “activity in kinase assay / JNK inhibition” value [1] was “inactive” and the IC50 [2] was over 100 µM.

In the case of `O=[N+]([O-])c1cnc(Sc2nc3ccccc3s2)s1` [BI-87G3, 2-(5-nitrothiazol-2-ylthio)benzo[d]thiazole], the “times less active against p38α (vs JNK)” value [3] is reported as “at least 50 times”, the “Akt, inhibition at 100 μM” value [4] is reported as 2% inhibition at 100 μM and the “activity against Akt kinase” value [4] is reported as “inactive”. The “activity against furin” value [5] was “inactive”, the IC50 [6] was over 100 µM and the “activity against lethal factor” value [6] was “inactive”.

For `Cn1c(Sc2nc3ccc(Cl)cc3s2)nnc1-c1ccc(Cl)cc1Cl` [BI-87G12], the IC50 [2] was over 100 µM.

`O=[N+]([O-])c1cnc(Sc2nc3cc(S(=O)(=O)O)ccc3[nH]2)s1` [BI-87H1] showed an IC50 [2] of over 100 µM.
